Source: ChEMBL document CHEMBL1201862, “PubChem BioAssay data set” (2004)
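Following 48 hours of exposure in 96-well plates, responses at five concentrations were used to interpolate endpoints linearly. At the GI50, growth is halved.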 Activity calls are given as the source filed them. No stated cut-off is given here; in the data, active = GI50 up to about 1.1 µM and inactive = higher.

Key:
Test in all cases: NCI tumour cell line growth inhibition, 48 h
SR = test system: SR
DMS-114 = test system: DMS-114
SNB-75 = test system: SNB-75
DMS-273 = test system: DMS-273
RPMI-8226 = test system: RPMI-8226
XF498 = test system: XF498
786-0 = test system: 786-0
SNB-78 = test system: SNB-78
ACHN = test system: ACHN
TK-10 = test system: TK-10
M19-MEL = test system: M19-MEL
HCC 2998 = test system: HCC 2998
A498 = test system: A498
CAKI-1 = test system: CAKI-1
M14 = test system: M14
MCF7 = test system: MCF7
NCI/ADR-RES = test system: NCI/ADR-RES

Measured: GI50

CCN(CC)c1cccc2c1/C(=N/O)CCCC2
inactive: SR > 100 µM | DMS-114 52.8 µM | SNB-75 84.1 µM | DMS-273 > 100 µM | RPMI-8226 56.2 µM | XF498 > 100 µM | 786-0 > 100 µM | SNB-78 > 100 µM | ACHN > 100 µM | TK-10 > 100 µM | M19-MEL > 100 µM

C#CC(C)(C)OCCCCOc1cc(O)c2c(=O)c3ccccc3n(C)c2c1
inactive: SR 89.3 µM | DMS-114 29.3 µM | SNB-75 84.5 µM | DMS-273 77.8 µM | RPMI-8226 > 100 µM | HCC 2998 66.1 µM | A498 91 µM | CAKI-1 > 100 µM | XF498 > 100 µM | M14 87.9 µM | 786-0 > 100 µM | SNB-78 > 100 µM | ACHN > 100 µM | TK-10 > 100 µM | M19-MEL > 100 µM

C=CCCN1CCc2c([nH]c3ccccc23)C1C(=O)O (configuration not stated)
inactive: SR > 100 µM | DMS-114 63.4 µM | SNB-75 26.9 µM | DMS-273 > 100 µM | HCC 2998 > 100 µM | A498 > 100 µM | CAKI-1 > 100 µM | XF498 > 100 µM | M14 > 100 µM | SNB-78 > 100 µM | ACHN > 100 µM | TK-10 > 100 µM | M19-MEL > 100 µM

CC(=O)NNc1nc(C)c(C(=O)NNC(=O)C(=O)Nc2ccc([N+](=O)[O-])cc2C#N)s1
inactive: SR 67.1 µM | DMS-114 > 100 µM | DMS-273 > 100 µM | RPMI-8226 > 100 µM | HCC 2998 > 100 µM | A498 58.1 µM | XF498 > 100 µM | M14 > 100 µM | 786-0 67.3 µM | SNB-78 > 100 µM | ACHN 83.6 µM | TK-10 > 100 µM | M19-MEL > 100 µM

ClCc1ccc2ccc3ccc(CCl)nc3c2n1
inactive: DMS-114 1.87 µM | SNB-75 1.95 µM | DMS-273 2.2 µM | RPMI-8226 1.46 µM | HCC 2998 4.11 µM | A498 10.6 µM | XF498 1.65 µM | NCI/ADR-RES 1.71 µM | SNB-78 2.88 µM | M19-MEL 1.76 µM
active: MCF7 0.955 µM

COc1cc2c(ccc3c4cc(OC)c(OC)cc4c[n+](C)c23)cc1O [FAGARONINE]
inactive: DMS-114 2.37 µM | SNB-75 2.9 µM | DMS-273 5.75 µM | RPMI-8226 > 65.3 µM | MCF7 4.15 µM | HCC 2998 34.4 µM | A498 3.94 µM | CAKI-1 61.7 µM | XF498 4.54 µM | NCI/ADR-RES 63.2 µM | SNB-78 26.1 µM | M19-MEL 23.9 µM

O=c1nc(NC(c2ccccc2)(c2ccccc2)c2ccccc2)ccn1CCCl
inactive: SR 20.3 µM | DMS-114 14.5 µM | SNB-75 17.6 µM | RPMI-8226 17.1 µM | HCC 2998 14.9 µM | A498 64.7 µM | XF498 14.1 µM | 786-0 18.1 µM | SNB-78 29.2 µM | ACHN 27.8 µM | TK-10 27.7 µM | M19-MEL 18.8 µM

O=C1C=CC(=O)c2c(Cl)ccc(O)c21
inactive: DMS-114 16.8 µM | SNB-75 28.5 µM | DMS-273 16.2 µM | RPMI-8226 5.66 µM | MCF7 13.9 µM | HCC 2998 > 100 µM | A498 > 87.9 µM | CAKI-1 11.1 µM | XF498 17.5 µM | NCI/ADR-RES 18.7 µM | SNB-78 22 µM | M19-MEL 16.3 µM

CC1NC(=O)C(C)C(c2ccccc2)N(N=O)C1c1ccccc1 (configuration not stated)
inactive: DMS-114 48.5 µM | SNB-75 > 38.3 µM | DMS-273 63 µM | RPMI-8226 33.6 µM | MCF7 50 µM | HCC 2998 52.4 µM | A498 12.8 µM | CAKI-1 > 100 µM | XF498 29.9 µM | NCI/ADR-RES > 69.8 µM | SNB-78 > 100 µM

Cc1cc(C(=O)NCCN(C)C)c2nc3ccccc3cc2c1
active: DMS-114 1.04 µM | CAKI-1 0.33 µM | NCI/ADR-RES 1.1 µM
inactive: SNB-75 3.13 µM | DMS-273 2.31 µM | RPMI-8226 1.55 µM | MCF7 1.55 µM | HCC 2998 3.67 µM | A498 1.15 µM | XF498 1.42 µM | SNB-78 4.45 µM | M19-MEL 1.85 µM
